Patent US8153784B2, “Imaging of enzyme activity” (The General Hospital Corporation, priority 2004, dated 2012)

How the values were obtained:
[1] = target: T1, endogenous mouse MPO (Mus musculus, UniProt P11247); test: LPS/Matrigel experiments, MR imaging; assay type: in vivo; settings: mice; LPS/Matrigel right vs Matrigel left
T1 construct: endogenous in cells; host or cells: inflammatory cells recruited by LPS in C57BL6 male mice (Matrigel site in the thigh, or flank muscle myositis)
T1 sequence (P11247 139-718): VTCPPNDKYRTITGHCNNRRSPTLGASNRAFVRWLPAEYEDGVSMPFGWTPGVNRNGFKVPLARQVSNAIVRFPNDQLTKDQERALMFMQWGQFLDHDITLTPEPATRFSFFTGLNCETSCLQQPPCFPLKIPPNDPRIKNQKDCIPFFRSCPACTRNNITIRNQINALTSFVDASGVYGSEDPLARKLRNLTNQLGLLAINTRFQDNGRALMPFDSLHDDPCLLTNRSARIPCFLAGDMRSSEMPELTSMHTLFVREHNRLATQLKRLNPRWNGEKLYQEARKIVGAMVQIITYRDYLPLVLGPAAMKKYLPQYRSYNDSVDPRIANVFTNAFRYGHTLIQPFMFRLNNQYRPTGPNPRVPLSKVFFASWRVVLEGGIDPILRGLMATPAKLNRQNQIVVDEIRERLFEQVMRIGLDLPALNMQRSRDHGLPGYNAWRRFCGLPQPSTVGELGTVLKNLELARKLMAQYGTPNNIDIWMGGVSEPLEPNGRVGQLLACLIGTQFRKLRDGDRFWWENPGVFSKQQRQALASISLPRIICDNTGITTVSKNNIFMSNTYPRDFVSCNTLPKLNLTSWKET
Method: (§1) The MR imaging experiments were performed on a 1.5 T GE Excite scanner and a 4.7 T Bruker Pharmascan scanner. For all MR imaging experiments, precontrast T2-(TR=2000, TE=100, ETL=8, NEX=4, fast spin echo sequence) and T1-weighted images (TR=500, TE=11, NEX=4, spin echo sequence) with fat saturation were initially performed to locate the gels or area of inflammation. The substrates (0.3 mmol/kg) were subsequently injected via the tail vein of the mouse. The mouse was immediately imaged after the injection of the contrast agent using multiple T1-weighted sequences with fat saturation for at least 3 hours.
(§2) Ten-week old C57BL6 male mice were obtained from Jackson Laboratories. A total of 22 mice were used for the study. • 1. MPO/Matrigel imaging experiments: Matrigel™ (Beckton-Dickinson), a […] basement membrane matrix gel was used to immobilize human MPO and glucose oxidase (to supply H2O2 required for detecting MPO oxidative activity, Calbiochem). This was chosen to reflect deposits of human MPO in inflamed tissue in a mouse model. 400 μL of a mixture of Matrigel™ and MEM (Cambrex) was injected slowly into the thighs of each mouse one hour prior to imaging. The right thigh mixture also contained 15 U of MPO and 4 U of glucose oxidase (Calbiochem), while the left thigh mixture contained no enzyme and thus serves as an internal control. […]

[2] = target: T2, human myeloperoxidase (MPO) (Homo sapiens, UniProt P05164); test: Pseudo-first-order rate constants of MPO-mediated conversion (relaxation times over time, 0.47 T); assay type: biochemical
T2 construct: purchased BioDesign Inc
T2 sequence (P05164 279-745 limits assumed): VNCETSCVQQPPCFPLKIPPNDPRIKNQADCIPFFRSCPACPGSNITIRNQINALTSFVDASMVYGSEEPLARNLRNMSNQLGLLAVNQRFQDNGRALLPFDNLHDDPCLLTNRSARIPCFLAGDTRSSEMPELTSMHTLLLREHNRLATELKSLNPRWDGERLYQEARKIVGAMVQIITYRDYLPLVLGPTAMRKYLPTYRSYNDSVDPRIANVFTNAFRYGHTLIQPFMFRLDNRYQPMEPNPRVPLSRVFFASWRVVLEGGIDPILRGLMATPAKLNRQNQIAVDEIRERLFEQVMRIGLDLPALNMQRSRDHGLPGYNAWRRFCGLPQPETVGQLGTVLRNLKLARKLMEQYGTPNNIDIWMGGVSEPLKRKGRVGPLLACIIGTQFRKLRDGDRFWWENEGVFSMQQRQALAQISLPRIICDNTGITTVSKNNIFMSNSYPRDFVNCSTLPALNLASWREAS
T2 sequence (P05164 165-273 limits assumed): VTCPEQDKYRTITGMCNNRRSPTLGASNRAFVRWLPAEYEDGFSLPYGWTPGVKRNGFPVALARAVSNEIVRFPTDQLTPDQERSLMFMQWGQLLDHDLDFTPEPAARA
Method: Kinetics of the samples were observed by measuring T1 and T2 at 0.47 T and 40° C. of the samples over at least a 24 hour period. At different time points, 1 M of sodium azide (final concentration=0.17 M) was added to stop the enzyme mediated reaction. The resultant progress curve was fitted with an empirical mathematical model and analyzed according to the Guggenheim method to obtain the pseudo-first-order rate constants (Guggenheim E A. Philos. Mag. 1926; 2:538).
An important property of a suitable substrate for an enzyme is the kinetics of enzymatic reaction. To determine the utility of the paramagnetic complexes as suitable substrates for human myeloperoxidase (MPO), we measured the pseudo-first-order rate constant of these substrates in MPO, and compared to the same substrates' reactions in Horse Radish Peroxidase (HRP) by monitoring the changes in relaxation time over time. […] The results shown were obtained using T1 measurements. T2 measurements yielded nearly identical results. The results are presented as mean±SD. N/A=not applicable.

[3] = target: T1, endogenous mouse MPO; test: LPS induced myositis, MR imaging at 4.7 T; assay type: in vivo; settings: mice with LPS induced myositis
Method: as §1, §2

Compound	increased enhancement on the MPO side [1] [fold]	fraction of the final relaxation rate obtained within the first 5 minutes [2]	Pseudo first-order rate constant ([2]; from T1 measurements, mean±SD) [s⁻¹]	enhancement at 50 minutes after injection [3]
O=C([O-])CN(CCN(CC(=O)[O-])CC(=O)NCCc1c[nH]c2ccc(O)cc12)CCN(CC(=O)[O-])CC(=O)NCCc1c[nH]c2ccc(O)cc12.[Gd+3] [2Gd^3+]	1.3	–	–	–
CC(C(=O)NCC(=O)NCCc1c[nH]c2ccc(O)cc12)N1CCN(CC(=O)[O-])CCN(CC(=O)[O-])CCN(CC(=O)[O-])CC1.[Gd+3] (stereo not shown) [5-HT-DOTA(Gd), Glycylmethyl DOTA(Gd) 5-Hydroxytryptamide]	–	more than 80%	0.0063	still significant enhancement
